Assay results as given in patent US10028957B2, “Depot formulations” (DURECT CORPORATION, priority 2007, dated 2018).

Experiment: Solvent capacity experiments (solvent added until single phase persists one week)
Format: physicochemical
Details: fixed PLGA/SAIB ratio, room temperature, weight percent of total final weight
[1] = Example 7, PLGA 4700 Da, 65/35, hexanediol initiated
[2] = Example 8, PLGA 6600 Da, 65/35, dodecanol initiated

SMILES | amount of solvent needed for a single phase solution that remained single phase for one week [1] [wt %] | amount of solvent needed for a single phase solution that remained single phase for one week [2] [wt %]
C[S+](C)[O-] [DMSO, dimethylsulfoxide] | 42.64 | 31.22
OCc1ccccc1 [BA, benzyl alcohol] | 26.44 | 19.70
